“Also recorded” adds a separate entry of the source.
Experiments:
[1] = system: rats with cerebral embolism; assay: spatial learning and retention (watermaze) of rats with cerebral embolism; type: in vivo, male Wistar rats
Experimental: This assumption is confirmed by the effect of nefiracetam on spatial learning and retention in rats with cerebral embolism, treated for 9 days with nefiracetam or vehicle, starting within 24 hours of embolization.
In male Wistar rats weighing 190-220 g a total of 700 microspheres (48 μm in diameter) were injected into the right common carotid artery of each animal, whereby a quasi-immediate embolism occurs. The embolized animals were randomly divided into 2 groups, each of 13 animals with same neurological deficit, designated as “Control” (embolism plus Vehicle), or “Nefiracetam” (embolism plus nefiracetam 10 mg/kg/day). In addition, a group of 13 “Normal (Sham)” non-embolized animals were used. The administration of nefiracetam or of its vehicle started within the same day of embolization and treatment lasted 9 days. Seven days after embolization, the embolized rats were submitted to a watermaze test, said watermaze being adapted from the Morris water task. The time taken to find the platform (latency) was determined. […] The experiment was carried out in two different sessions. In the first session, at the seventh day embolized rats were submitted to the spatial learning test performed three trials per day for three days (from day 7 to day 9). In the second session, one week after the last day of spatial learning test […], a retention test was performed whereby each rat was given three consecutive trials to learn and remember the location of the platform.

[2] = system: hippocampal rat embrio neurons; assay: neurite outgrowth in primary cultures of hippocampal neurons; type: cell-based
[3] = system: patients after a stroke (cerebral infarction or cerebral hemorrhage); details: Ohtomo et al., global results; cited from earlier work
[4] = system: cortical rat embrio neurons; assay: neurite outgrowth in primary cultures of cortical neurons; type: cell-based; details: 0.1, 1, 10 and 100 micromoles/l
post-stroke patients = assay: controlled clinical trial against placebo in post-stroke patients, improvement rating by duration from stroke; type: in vivo, human
Experimental: The activity of nefiracetam to improve ADL in post-stroke patients has been discovered during a controlled clinical trial against placebo. The compound has been administered orally (450 mg/day, three times daily) to 32 post-stroke patients within six months after the event whilst, concurrently, 27 patients received placebo. The two groups of patients were followed during at least 8 weeks and followed up at the end of week 4 and at the end of week 8 on a symptom scale measuring Activities of Daily Living. […] Among the above 59 patients, 19 received nefiracetam and 10 received placebo within three months after stroke. […] The difference was significant (p=0.035, χ^2 test).
Further, the action of nefiracetam on the patient who had been treated with nefiracetam early after stroke or later was evaluated.

stroke patients = details: Hirata et al.; cited from earlier work
[5] = Overall (all durations from stroke)
[6] = duration from stroke <12 months
[7] = duration from stroke ≧12 months

## Cc1cccc(C)c1NC(=O)CN1CCCC1=O [nefiracetam, N-(2,6-dimethylphenyl)-2-(2-oxo-1-pyrrolidinyl)acetamide]
[1]; Day 7, 10 mg/kg/day, of 13 rats
  Number of rats which failed to find the platform within 180 Sec., Spatial learning test: 8
[1]; Day 7 after embolization, 10 mg/kg/day for 9 days, n 13
  Latency to reach the platform, Spatial learning test: 147.6 ± 14.1 s
[1]; Day 8, 10 mg/kg/day, of 13 rats
  Number of rats which failed to find the platform within 180 Sec., Spatial learning test: 2
[1]; Day 8 after embolization, 10 mg/kg/day for 9 days, n 13
  Latency to reach the platform, Spatial learning test: 83.7 ± 17.4 s
[1]; Day 9, 10 mg/kg/day, of 13 rats
  Number of rats which failed to find the platform within 180 Sec., Spatial learning test: 2
[1]; Day 9 after embolization, 10 mg/kg/day for 9 days, n 13
  Latency to reach the platform, Spatial learning test: 93.1 ± 16.2 s
[1]; Day 17, 10 mg/kg/day, of 13 rats
  Number of rats which failed to find the platform within 180 Sec., Retention test: 2
[1]; Day 17 after embolization (after washout), 10 mg/kg/day for 9 days, n 13
  Latency to reach the platform, Retention test: 72.2 ± 17.0 s
[1]; day 17 after embolization, after washout
  effect in retention test vs vehicle (in words): maintained even after washout; also recorded: remakable difference
[1]; days 7 to 9 after embolization
  learning ability in place-learning watermaze task vs vehicle (in words): clear difference between nefiracetam and vehicle-treated animals
[2]; 0.1, 1, 10 and 100 micromoles/l
  neurotrophic effect (neurite outgrowth): significantly increasing neurite outgrowth
[2]; with bFGF
  neurite outgrowth effect in combination with bFGF: potentiated by bFGF
[3]
  activities of daily living, nefiracetam vs placebo: no significant difference between the two groups
  psychiatric symptoms: improves the psychiatric symptoms
[4]
  neurotrophic effect (neurite outgrowth): significantly increasing neurite outgrowth
post-stroke patients; 450 mg/day orally, within six months after stroke, 32 patients, weeks 4 and 8
  improvement on symptom scale measuring Activities of Daily Living (in words): moderate or remarkable improvement
post-stroke patients; [5]
  Emotional Disturbance, Improvement Rate (Percent Patients Remarkably or Moderately Improved): Overall 22.6%
  Global Improvement Rating, Improvement Rate (Percent Patients Remarkably or Moderately Improved): Overall 32.3%
  Intellectual Dysfunction, Improvement Rate (Percent Patients Remarkably or Moderately Improved): Overall 11.9%
  Psychiatric Symptoms, Improvement Rate (Percent Patients Remarkably or Moderately Improved): Overall 30.8%
  Reduced Spontaneity, Improvement Rate (Percent Patients Remarkably or Moderately Improved): Overall 23.4%
post-stroke patients; duration from stroke <3 months
  ADL Improvement, Improvement Rate (Percent Patients Remarkably or Moderately Improved): 41.7%
  ADL Improvement, Improvement Rate (patients improved/patients): 5/12
  Emotional Disturbance, Improvement Rate (Percent Patients Remarkably or Moderately Improved): 70.6%
  Emotional Disturbance, Improvement Rate (patients improved/patients): 12/17
  Global Improvement Rating, Improvement Rate (Percent Patients Remarkably or Moderately Improved): 68.4%
  Global Improvement Rating, Improvement Rate (patients improved/patients): 13/19
  Intellectual Dysfunction, Improvement Rate (Percent Patients Remarkably or Moderately Improved): 43.8%
  Intellectual Dysfunction, Improvement Rate (patients improved/patients): 7/16
  Psychiatric Symptoms, Improvement Rate (Percent Patients Remarkably or Moderately Improved): 68.4%
  Psychiatric Symptoms, Improvement Rate (patients improved/patients): 13/19
  Reduced Spontaneity, Improvement Rate (Percent Patients Remarkably or Moderately Improved): 61.1%
  Reduced Spontaneity, Improvement Rate (patients improved/patients): 11/18
post-stroke patients; duration from stroke <6 months
  ADL Improvement, Improvement Rate (Percent Patients Remarkably or Moderately Improved): 21.7%
  ADL Improvement, Improvement Rate (patients improved/patients): 5/23
  Emotional Disturbance, Improvement Rate (Percent Patients Remarkably or Moderately Improved): 48.3%
  Emotional Disturbance, Improvement Rate (patients improved/patients): 14/29
  Global Improvement Rating, Improvement Rate (Percent Patients Remarkably or Moderately Improved): 50.0%
  Global Improvement Rating, Improvement Rate (patients improved/patients): 16/32
  Intellectual Dysfunction, Improvement Rate (Percent Patients Remarkably or Moderately Improved): 29.6%
  Intellectual Dysfunction, Improvement Rate (patients improved/patients): 8/27
  Psychiatric Symptoms, Improvement Rate (Percent Patients Remarkably or Moderately Improved): 50.0%
  Psychiatric Symptoms, Improvement Rate (patients improved/patients): 16/32
  Reduced Spontaneity, Improvement Rate (Percent Patients Remarkably or Moderately Improved): 46.7%
  Reduced Spontaneity, Improvement Rate (patients improved/patients): 14/30
post-stroke patients; [6]
  ADL Improvement, Improvement Rate (Percent Patients Remarkably or Moderately Improved): 14.3%
  ADL Improvement, Improvement Rate (patients improved/patients): 5/35
  Emotional Disturbance, Improvement Rate (Percent Patients Remarkably or Moderately Improved): 48.8%
  Emotional Disturbance, Improvement Rate (patients improved/patients): 21/43
  Global Improvement Rating, Improvement Rate (Percent Patients Remarkably or Moderately Improved): 50.0%
  Global Improvement Rating, Improvement Rate (patients improved/patients): 24/48
  Intellectual Dysfunction, Improvement Rate (Percent Patients Remarkably or Moderately Improved): 23.1%
  Intellectual Dysfunction, Improvement Rate (patients improved/patients): 9/39
  Psychiatric Symptoms, Improvement Rate (Percent Patients Remarkably or Moderately Improved): 50.0%
  Psychiatric Symptoms, Improvement Rate (patients improved/patients): 24/48
  Reduced Spontaneity, Improvement Rate (Percent Patients Remarkably or Moderately Improved): 46.7%
  Reduced Spontaneity, Improvement Rate (patients improved/patients): 21/45
post-stroke patients; duration from stroke ≧3 months
  ADL Improvement, Improvement Rate (Percent Patients Remarkably or Moderately Improved): 1.2%
  ADL Improvement, Improvement Rate (patients improved/patients): 1/81
post-stroke patients; duration from stroke ≧6 months
  ADL Improvement, Improvement Rate (Percent Patients Remarkably or Moderately Improved): 1.4%
  ADL Improvement, Improvement Rate (patients improved/patients): 1/70
  Emotional Disturbance, Improvement Rate (Percent Patients Remarkably or Moderately Improved): 14.7%
  Emotional Disturbance, Improvement Rate (patients improved/patients): 14/95
  Global Improvement Rating, Improvement Rate (Percent Patients Remarkably or Moderately Improved): 26.5%
  Global Improvement Rating, Improvement Rate (patients improved/patients): 26/98
  Intellectual Dysfunction, Improvement Rate (Percent Patients Remarkably or Moderately Improved): 6.1%
  Intellectual Dysfunction, Improvement Rate (patients improved/patients): 5/82
  Psychiatric Symptoms, Improvement Rate (Percent Patients Remarkably or Moderately Improved): 24.5%
  Psychiatric Symptoms, Improvement Rate (patients improved/patients): 24/98
  Reduced Spontaneity, Improvement Rate (Percent Patients Remarkably or Moderately Improved): 16.0%
  Reduced Spontaneity, Improvement Rate (patients improved/patients): 15/94
post-stroke patients; [7]
  ADL Improvement, Improvement Rate (Percent Patients Remarkably or Moderately Improved): 1.7%
  ADL Improvement, Improvement Rate (patients improved/patients): 1/58
  Emotional Disturbance, Improvement Rate (Percent Patients Remarkably or Moderately Improved): 8.6%
  Emotional Disturbance, Improvement Rate (patients improved/patients): 7/81
  Global Improvement Rating, Improvement Rate (Percent Patients Remarkably or Moderately Improved): 22.0%
  Global Improvement Rating, Improvement Rate (patients improved/patients): 18/82
  Intellectual Dysfunction, Improvement Rate (Percent Patients Remarkably or Moderately Improved): 5.7%
  Intellectual Dysfunction, Improvement Rate (patients improved/patients): 4/70
  Psychiatric Symptoms, Improvement Rate (Percent Patients Remarkably or Moderately Improved): 19.5%
  Psychiatric Symptoms, Improvement Rate (patients improved/patients): 16/82
  Reduced Spontaneity, Improvement Rate (Percent Patients Remarkably or Moderately Improved): 10.1%
  Reduced Spontaneity, Improvement Rate (patients improved/patients): 8/79
post-stroke patients; early treatment after stroke
  incontinence of urines: tends to improve
  neurological signs: tends to improve
Stroke patients
  improvement of mental function tests: not significant
